Measured values reported in US10913740B2, “JAK kinase inhibitor compounds for treatment of respiratory disease” (THERAVANCE BIOPHARMA R&D IP, LLC, priority 2015, dated 2021).
Read-outs that look alike come from different tables or passages of the source.

Columns and labels:
[1] = tested on: IL-13 induced pSTAT6 in lung tissue; assay: Murine model of IL-13 induced pSTAT6 induction in lung tissue; format: in vivo; conditions: mouse lung, Assay 5 conditions
Procedure: Il-13 is an important cytokine underlying the pathophysiology of asthma (Kudlacz et al. Eur. J. Pharmacol, 2008, 582, 154-161). IL-13 binds to cell surface receptors activating members of the Janus family of kinases (JAK) which then phosphorylate STAT6 and subsequently activates further transcription pathways. In the described model, a dose of IL-13 was delivered locally into the lungs of mice to induce the phosphorylation of STAT6 (pSTAT6) which is then measured as the endpoint.
Adult balb/c mice from Harlan were used in the assay. […] Animals were placed in lateral recumbency post dose and monitored for full recovery from anesthesia before being returned to their home cage. Four hours later, animals were once again briefly anesthetized and challenged with either vehicle or IL-13 (0.03 μg total dose delivered, 50 μL total volume) via oral aspiration before being monitored for recovery from anesthesia and returned to their home cage. One hour after vehicle or IL-13 administration, lungs were collected for both pSTAT6 detection using an anti-pSTAT6 ELISA (rabbit mAb capture/coating antibody; mouse mAb detection/report antibody: anti-pSTAT6-pY641; secondary antibody: anti-mouse IgG-HRP) and analyzed for total drug concentration as described above in Assay 4. […]

[2] = Pharmacokinetics in plasma and lung in mouse; format: in vivo; conditions: ratio of lung AUC (μg hr/g) to plasma AUC (μg hr/mL), oral aspiration, 0.2 mg/mL, 50 uL
Procedure: Plasma and lung levels of test compounds and ratios thereof were determined in the following manner. BALB/c mice from Charles River Laboratories were used in the assay. Test compounds were individually formulated in 20% propylene glycol in pH 4 citrate buffer at a concentration of 0.2 mg/mL and 50 uL of the dosing solution was introduced into the trachea of a mouse by oral aspiration. At various time points (typically 0.167, 2, 6, 24 hr) post dosing, blood samples were removed via cardiac puncture and intact lungs were excised from the mice. Blood samples were centrifuged (Eppendorf centrifuge, 5804R) for 4 minutes at approximately 12,000 rpm at 4° C. to collect plasma. Lungs were padded dry, weighed, and homogenized at a dilution of 1:3 in sterile water. Plasma and lung levels of test compound were determined by LC-MS analysis against analytical standards constructed into a standard curve in the test matrix. A lung to plasma ratio was determined as the ratio of the lung AUC in μg hr/g to the plasma AUC in μg hr/mL, where AUC is conventionally defined as the area under the curve of test compound concentration vs. time.

JAK1 = JAK1 (Homo sapiens (Human), UniProt P23458); assay: LanthaScreen JAK biochemical assay (JAK1); conditions: vs Examples 1, 7, 13, 6 respectively
Sequence of JAK1 (P23458 whole entry): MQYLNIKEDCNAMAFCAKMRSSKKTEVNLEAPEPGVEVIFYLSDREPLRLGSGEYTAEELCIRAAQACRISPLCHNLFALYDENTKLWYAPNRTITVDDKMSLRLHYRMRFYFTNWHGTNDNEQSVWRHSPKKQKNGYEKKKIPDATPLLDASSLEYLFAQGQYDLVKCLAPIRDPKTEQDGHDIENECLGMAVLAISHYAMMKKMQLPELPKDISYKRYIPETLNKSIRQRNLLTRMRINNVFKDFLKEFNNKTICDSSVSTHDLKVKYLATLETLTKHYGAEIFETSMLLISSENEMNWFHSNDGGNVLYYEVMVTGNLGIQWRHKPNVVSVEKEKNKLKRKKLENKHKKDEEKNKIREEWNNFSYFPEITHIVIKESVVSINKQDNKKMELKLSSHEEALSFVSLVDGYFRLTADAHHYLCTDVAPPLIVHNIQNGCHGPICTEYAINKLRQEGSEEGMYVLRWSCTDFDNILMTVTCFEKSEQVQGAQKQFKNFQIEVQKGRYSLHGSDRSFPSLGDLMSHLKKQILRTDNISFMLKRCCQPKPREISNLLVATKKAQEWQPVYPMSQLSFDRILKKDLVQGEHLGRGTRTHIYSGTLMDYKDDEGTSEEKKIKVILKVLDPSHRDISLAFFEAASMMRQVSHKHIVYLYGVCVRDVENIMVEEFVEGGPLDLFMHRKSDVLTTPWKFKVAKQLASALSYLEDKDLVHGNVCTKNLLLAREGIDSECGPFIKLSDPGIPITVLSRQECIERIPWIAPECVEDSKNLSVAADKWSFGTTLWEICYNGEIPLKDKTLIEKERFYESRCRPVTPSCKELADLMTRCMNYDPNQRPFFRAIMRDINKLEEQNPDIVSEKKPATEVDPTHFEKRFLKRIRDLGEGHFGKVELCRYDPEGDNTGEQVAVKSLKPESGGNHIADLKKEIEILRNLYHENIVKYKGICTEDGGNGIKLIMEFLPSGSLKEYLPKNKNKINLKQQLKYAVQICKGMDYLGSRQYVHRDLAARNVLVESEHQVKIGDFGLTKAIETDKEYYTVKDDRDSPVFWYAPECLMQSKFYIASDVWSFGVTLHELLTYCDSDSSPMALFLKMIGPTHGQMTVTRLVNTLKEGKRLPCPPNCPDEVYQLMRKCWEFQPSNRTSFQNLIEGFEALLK

[3] = mouse, in vivo
Procedure: Adult balb/c mice from Harlan were used in the assay. On the day of study, animals were lightly anesthetized with isoflurane and administered either vehicle or test compound (0.5 mg/mL, 50 μL total volume over several breaths) via oral aspiration. Animals were placed in lateral recumbency post dose and monitored for full recovery from anesthesia before being returned to their home cage. Four hours later, animals were once again briefly anesthetized and challenged with either vehicle or IL-13 (0.03 μg total dose delivered, 50 μL total volume) via oral aspiration before being monitored for recovery from anesthesia and returned to their home cage. One hour after vehicle or IL-13 administration, lungs were collected for both pSTAT6 detection using an anti-pSTAT6 ELISA (rabbit mAb capture/coating antibody; mouse mAb detection/report antibody: anti-pSTAT6-pY641; secondary antibody: anti-mouse IgG-HRP) and analyzed for total drug concentration as described above in Assay 4.
Selected compounds of the invention were characterized in both the pharmacokinetic assay (Assay 4) and pharmacodynamic assay (Assay 5). A good correlation was observed between test compound concentration in lung determined in the pharmacokinetic assay and in the pharmacodynamic assay at a similar time points post dosing. Observation of significant compound concentration in the mouse lung in the pharmacodynamic assay confirmed that the observed inhibition of IL-13 induced pSTAT6 induction was a result of the activity of the test compound.

[4] = tested on: interleukin-13 induced STAT6 phosphorylation in BEAS-2B human lung epithelial cells; assay: AlphaScreen JAKI cellular potency assay (BEAS-2B); format: cell-based; conditions: vs Examples 1, 7, 13, 6 respectively
Procedure: The AlphaScreen JAKI cellular potency assay was carried out by measuring interleukin-13 (IL-13, R&D Systems) induced STAT6 phosphorylation in BEAS-2B human lung epithelial cells (ATCC). The anti-STAT6 antibody (Cell Signaling Technologies) was conjugated to AlphaScreen acceptor beads (Perkin Elmer), while the anti-pSTAT6 (pTyr641) antibody (Cell Signaling Technologies) was biotinylated using EZ-Link Sulfo-NHS-Biotin (Thermo Scientific).
BEAS-2B cells were grown at 37° C. in a 5% CO2 humidified incubator in 50% DMEM/50% F-12 medium (Life Technologies) supplemented with 10% FBS (Hyclone), 100 U/mL penicillin, 100 μg/mL streptomycin (Life Technologies), and 2 mM GlutaMAX (Life Technologies). On day 1 of the assay, cells were seeded at a 7,500 cells/well density in white poly-D-lysine-coated 384-well plates (Corning) with 25 μL medium, and were allowed to adhere overnight in the incubator. On day 2 of the assay, the medium was removed and replaced with 12 μL of assay buffer (Hank's Balanced Salt Solution/HBSS, 25 mM HEPES, and 1 mg/ml bovine serum albumin/BSA) containing dose-responses of test compounds. Compounds were serially diluted in DMSO and then diluted another 1000-fold in media to bring the final DMSO concentration to 0.1%. Cells were incubated with test compounds at 37° C. for 1 h, and followed by the addition of 12 μl of pre-warmed IL-13 (80 ng/ml in assay buffer) for stimulation. After incubating at 37° C. for 30 min, the assay buffer (containing compound and IL-13) was removed, and 10 μl of cell lysis buffer (25 mM HEPES, 0.1% SDS, 1% NP-40, 5 mM MgCl2, 1.3 mM EDTA, 1 mM EGTA, and supplement with Complete Ultra mini protease inhibitors and PhosSTOP from Roche Diagnostics). The plates were shaken at ambient temperature for 30 min before the addition of detection reagents. […] After a minimum of 2 h incubation, the assay plates were read on the EnVision plate reader.
Results were expressed as the negative logarithm of the IC50 value, pIC50.

[5] = Dynamic moisture sorption assessment; format: physicochemical; conditions: humidity range of 5% to 90% relative humidity, room temperature (25° C.)
Procedure: Dynamic moisture sorption (DMS) measurement was performed using a VTI atmospheric microbalance, SGA-100 system (VTI Corp., Hialeah, Fla. 33016). A weighed sample was used and the humidity was lowest possible value (close to 0% RH) at the start of the analysis. The DMS analysis consisted of an initial drying step (˜0% RH) for 120 minutes, followed by two cycles of sorption and desorption with a scan rate of 5% RH/step over the humidity range of 5% RH to 90% RH. The DMS run was performed isothermally at 25° C.

## CCc1cc(O)c(F)cc1-c1ccc2c(-c3nc4c([nH]3)CCN(C3CN(C5CCS(=O)(=O)C5)C3)C4)n[nH]c2c1 (stereo not drawn) [Example 1-15]
[1]
  pSTAT6 inhibition in the pharmacodynamic assay: noted as exceptions

## CCc1cc(O)c(F)cc1-c1ccc2c(-c3nc4c([nH]3)CCN(CCNC3(C#N)CC3)C4)n[nH]c2c1 [Example 3-1]
[1]
  pSTAT6 inhibition in the pharmacodynamic assay: noted as exceptions

## CCc1cc(O)c(F)cc1-c1ccc2c(-c3nc4c([nH]3)CCN(CCN(C)CC(C)C)C4)n[nH]c2c1 [Example 3-33]
[2]
  Lung to Plasma ratio Assay 4: A (A denotes a ratio >100)

## CCc1cc(O)c(F)cc1-c1ccc2c(-c3nc4c([nH]3)CCN(CCNC3CC(OC)C3)C4)n[nH]c2c1 (stereo not drawn) [Example 8, 5-Ethyl-2-fluoro-4-(3-(5-(2-((3-methoxycyclobutyl)amino)ethyl)-4,5,6,7-tetrahydro-1H-imidazo[4,5-c]pyridin-2-yl)-1H-indazol-6-yl)phenol]
[2]
  Lung to Plasma ratio Assay 4: A (A denotes a ratio >100)

## CCc1cc(O)c(F)cc1-c1ccc2c(-c3nc4c([nH]3)CCN(C[C@@H]3CCCN3C)C4)n[nH]c2c1 [Example 11, (S)-5-ethyl-2-fluoro-4-(3-(5-((1-methylpyrrolidin-2-yl)methyl)-4,5,6,7-tetrahydro-1H-imidazo[4,5-c]pyridin-2-yl)-1H-indazol-6-yl)phenol]
[2]
  Lung to Plasma ratio Assay 4: A (A denotes a ratio >100)

## CCc1cc(O)c(F)cc1-c1ccc2c(-c3nc4c([nH]3)CCN(C[C@H]3COCCN3)C4)n[nH]c2c1 [Example 13, (S)-5-Ethyl-2-fluoro-4-(3-(5-(morpholin-3-ylmethyl)-4,5,6,7-tetrahydro-1H-imidazo[4,5-c]pyridin-2-yl)-1H-indazol-6-yl)phenol]
[2]
  Lung to Plasma ratio Assay 4: A (A denotes a ratio >100)

## CCc1cc(O)c(F)cc1-c1ccc2c(-c3nc4c([nH]3)CCN(C[C@@H]3COCCN3)C4)n[nH]c2c1 [Example 14, (R)-5-Ethyl-2-fluoro-4-(3-(5-(morpholin-3-ylmethyl)-4,5,6,7-tetrahydro-1H-imidazo[4,5-c]pyridin-2-yl)-1H-indazol-6-yl)phenol]
[2]
  Lung to Plasma ratio Assay 4: A (A denotes a ratio >100)

## CCc1cc(O)c(F)cc1-c1ccc2c(-c3nc4c([nH]3)CCN(CC3CNC3)C4)n[nH]c2c1 [Example 14-7]
[2]
  Lung to Plasma ratio Assay 4: A (A denotes a ratio >100)

## CCc1cc(O)c(F)cc1-c1ccc2c(-c3nc4c([nH]3)CCN(CCN3CCC[C@@H]3C)C4)n[nH]c2c1 [Example 15, (S)-5-ethyl-2-fluoro-4-(3-(5-(2-(2-methylpyrrolidin-1-yl)ethyl)-4,5,6,7-tetrahydro-1H-imidazo[4,5-c]pyridin-2-yl)-1H-indazol-6-yl)phenol]
[2]
  Lung to Plasma ratio Assay 4: A (A denotes a ratio >100)

## CCc1cc(O)c(F)cc1-c1ccc2c(-c3nc4c([nH]3)CCN(C3CC(C)C3)C4)n[nH]c2c1 (stereo not drawn) [Example C-1, 5-Ethyl-2-fluoro-4-(3-(5-(3-methylcyclobutyl)-4,5,6,7-tetrahydro-1H-imidazo[4,5-c]pyridin-2-yl)-1H-indazol-6-yl)phenol]
JAK1
  fold less potent than the corresponding compound of the invention in the enzyme assay: 2 fold
[3]; balb/c, 5 h
  factor by which lung concentration was smaller than for the corresponding compound of the invention: 36

## CCc1cc(O)c(F)cc1-c1ccc2c(-c3nc4c([nH]3)CCN(CCC(C)C)C4)n[nH]c2c1 [Example C-2]
[4]
  fold less potent than the corresponding compound of the invention in the BEAS-2B cellular assay: 6 fold
JAK1
  fold less potent than the corresponding compound of the invention in the enzyme assay: 3 fold
[3]
  factor by which lung concentration was smaller than for the corresponding compound of the invention: 52

## CCc1cc(O)c(F)cc1-c1ccc2c(-c3nc4c([nH]3)CCN(CC3CCCOC3)C4)n[nH]c2c1 (stereo not drawn) [Example C-3]
[4]
  fold less potent than the corresponding compound of the invention in the BEAS-2B cellular assay: 3 fold
JAK1
  fold less potent than the corresponding compound of the invention in the enzyme assay: 6 fold
[3]
  factor by which lung concentration was smaller than for the corresponding compound of the invention: 13

## CCc1cc(O)c(F)cc1-c1ccc2c(-c3nc4c([nH]3)CCN(C3CCC(C)CC3)C4)n[nH]c2c1 (stereo not drawn) [Example C-4]
[4]
  fold less potent than the corresponding compound of the invention in the BEAS-2B cellular assay: 6 fold
JAK1
  fold less potent than the corresponding compound of the invention in the enzyme assay: 2.5 fold
[3]
  factor by which lung concentration was smaller than for the corresponding compound of the invention: 23

## CCc1cc(O)c(F)cc1-c1ccc2c(-c3nc4c([nH]3)CCN(C3CCN(C)CC3)C4)n[nH]c2c1 [crystalline hydrate, 5-ethyl-2-fluoro-4-(3-(5-(1-methylpiperidin-4-yl)-4,5,6,7-tetrahydro-1H-imidazo[4,5-c]pyridin-2-yl)-1H-indazol-6-yl)phenol]
[5]
  weight gain (dynamic moisture sorption): less than 0.12%
